Laboratory results published in patent EP1117659B1, “SUBSTITUTED 3-CYANOQUINOLINES AS PROTEIN TYROSINE KINASES INHIBITORS” (Wyeth Holdings Corporation, priority 1998, dated 2000).
pIC50: −log10 of the molar value. Values joined by “and” are separate entries in the source; they are usually repeats but may differ in a detail not shown here. Equal entries are not always repeated. Structures can show the parent of a compound that is named as a salt. Where two headings read alike, the source gives them in different places.

Tests used:
Format in all cases: biochemical
[1] = biological target: T1, epidermal growth factor receptor kinase (EGF-R Kinase, recombinant enzyme; His-tagged cytoplasmic domain of EGFR) (Homo sapiens, UniProt P00533); experiment: Inhibition of Epidermal Growth Factor Receptor Kinase (EGF-R) using recombinant enzyme, RR-SRC peptide phosphorylation, 33P-ATP; details: for inhibition at 0.5 µM: read-out: %Inh @ 0.5 µM; for pIC50: recombinant enzyme, 90 min at room temperature
T1 construct: EGFR cDNA encoding amino acids 645 - 1186 preceded by Met-Ala-(His)6; Met-Ala-(His)6 (N); made in house; host or cells: Sf9 insect cells, recombinant baculovirus vHcEGFR52
Experimental: Representative test compounds were evaluated for their ability to inhibit the phosphorylation of the tyrosine residue of a peptide substrate catalyzed by the enzyme epidermal growth factor receptor kinase. The peptide substrate (RR-SRC) has the sequence arg-arg-leu-ile-glu-asp-ala-glu-tyr-ala-ala-arg-gly. The enzyme used in this test procedure is the His-tagged cytoplasmic domain of EGFR. A recombinant baculovirus (vHcEGFR52) was constructed containing the EGFR cDNA encoding amino acids 645 - 1186 preceded by Met-Ala-(His)6. Sf9 cells in 100 mm plates were infected at an moi of 10 pfu/cell and cells were harvested 48 h post infection. A cytoplasmic extract was prepared using 1% Triton X-100 and applied to Ni-NTA column. After washing the column with 20 mM imidazole, HcEGFR was eluted with 250 mM imidazole (in 50 mM Na2HPO4, pH 8.0, 300 mM NaCl). Fractions collected were dialyzed against 10 mM HEPES, pH 7.0, 50 mM NaCl, 10% glycerol, lug/mL antipain and leupeptin and 0.1 mM Pefabloc SC. The protein was frozen in dry ice/methanol and stored -70°C.
Test compounds were made into 10 mg/mL stock solutions in 100% dimethylsulfoxide (DMSO). Prior to experiment, stock solutions were diluted to 500 uM with 100% DMSO and then serially diluted to the desired concentration with HEPES buffer (30 mM HEPES pH 7.4).
For the enzyme reaction, 10 uL of each inhibitor (at various concentrations) were added to each well of a 96-well plate. To this was added 3 uL of enzyme (1:10 dilution in 10mM HEPES, pH 7.4 for final cone. of 1:120). This was allowed to sit for 10 min on ice and was followed by the addition of 5 ul peptide (80 uM final cone.), 10ul of 4X Buffer (Table A), 0.25 uL ^33P-ATP and 12 uL H2O. The reaction was allowed to run for 90 min at room temperature and was followed by spotting the entire volume on to precut P81 filter papers. The filter discs were washed 2X with 0.5% phosphoric acid and radioactivity was measured using a liquid scintillation counter.
The inhibition data for representative compounds of the invention are shown below in TABLE 1. […] The % inhibition of the test compound was determined for at least three different concentrations and the IC50 value was evaluated from the dose response curve. […] CPM(control) is in units of counts per minute and was a number expressing the amount of radiolabled ATP (γ-^33P) incorporated into the RR-SRC peptide substrate by the enzyme after 90 minutes at room temperature in the absence of test compound as measured by liquid scintillation counting. The CPM values were corrected for the background counts produced by ATP in the absence of the enzymatic reaction. […]

[2] = biological target: Recombinant human MEK 1 (MAPKK) / recombinant human ERK2 (MAPK) (Mek-Erk) (Homo sapiens, UniProt P28482+Q02750); experiment: Mitogen Activated Protein Kinase (MAPK) assay, two component coupled Mek-Erk test; details: for pIC50: read-out: Mek-Erk
[3] = biological target: Epithelial Cell Kinase (ECK) (Homo sapiens, UniProt P29317); experiment: Inhibition of Epithelial Cell Kinase (ECK), immobilized biotinylated peptide, HRP anti-phosphotyrosine readout; details: IC50, substrate phosphorylation
Experimental: In this standard pharmacological test procedure, a biotinylated peptide substrate is first immobilized on neutravidin-coated microtiter plates. The test drug, the Epithelial Cell Kinase (ECK), Mg^++, sodium vanadate (a protein tyrosine phosphatase inhibitor), and an appropriate buffer to maintain pH (7.2) are then added to the immobilized substrate-containing microtiter wells. ATP is then added to initiate phosphorylation. After incubation, the assay plates are washed with a suitable buffer leaving behind phosphorylated peptide which is exposed to horse radish peroxidase (HRP)-conjugated anti-phosphotyrosine monoclonal antibody. The antibody-treated plates are washed again and the HRP activity in individual wells is quantified as a reflection of degree of substrate phosphorylation. […] Multiple entries for a given compound indication it was tested multiple times.

[4] = biological target: T2, Kinase insert Domain containing Receptor (KDR: the catalytic domain of the VEGF receptor) (Homo sapiens, UniProt P35968); experiment: Inhibition of Kinase insert Domain containing Receptor (KDR), radioactive phosphorylation of Glu:Tyr copolymer; details: IC50, substrate phosphorylation
T2 construct: KDR: the catalytic domain of the VEGF receptor
Experimental: In this standard pharmacological test procedure, KDR protein is mixed, in the presence or absence of a inhibitor compound, with a substrate peptide to be phosphorylated (a copolymer of glutamic acid and tyrosine, E:Y :: 4:1) and other cofactors such as Mg^++ and sodium vanadate (a protein tyrosine phosphatase inhibitor) in an appropriate buffer to maintain pH (7.2). ATP and a radioactive tracer (either P^32- or P^33- labeled ATP) is then add to initiate phosphorylation. After incubation, the radioactive phosphate associated with the acid-insoluble fraction of the assay mixture is then quantified as reflection of substrate phosphorylation. […] Multiple entries for a given compound indication it was tested multiple times.

Sequence of Recombinant human MEK 1 (MAPKK) / recombinant human ERK2 (MAPK) (Mek-Erk) (P28482 2-360): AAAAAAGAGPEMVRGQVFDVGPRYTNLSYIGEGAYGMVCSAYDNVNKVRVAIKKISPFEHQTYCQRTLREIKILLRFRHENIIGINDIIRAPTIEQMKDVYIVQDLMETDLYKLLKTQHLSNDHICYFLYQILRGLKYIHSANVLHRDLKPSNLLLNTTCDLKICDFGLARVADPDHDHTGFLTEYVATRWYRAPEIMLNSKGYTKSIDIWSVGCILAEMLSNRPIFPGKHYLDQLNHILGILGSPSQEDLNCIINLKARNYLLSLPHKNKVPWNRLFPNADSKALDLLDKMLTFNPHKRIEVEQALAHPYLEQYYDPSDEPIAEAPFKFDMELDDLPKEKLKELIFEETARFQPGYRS
Sequence of Recombinant human MEK 1 (MAPKK) / recombinant human ERK2 (MAPK) (Mek-Erk) (Q02750 whole entry): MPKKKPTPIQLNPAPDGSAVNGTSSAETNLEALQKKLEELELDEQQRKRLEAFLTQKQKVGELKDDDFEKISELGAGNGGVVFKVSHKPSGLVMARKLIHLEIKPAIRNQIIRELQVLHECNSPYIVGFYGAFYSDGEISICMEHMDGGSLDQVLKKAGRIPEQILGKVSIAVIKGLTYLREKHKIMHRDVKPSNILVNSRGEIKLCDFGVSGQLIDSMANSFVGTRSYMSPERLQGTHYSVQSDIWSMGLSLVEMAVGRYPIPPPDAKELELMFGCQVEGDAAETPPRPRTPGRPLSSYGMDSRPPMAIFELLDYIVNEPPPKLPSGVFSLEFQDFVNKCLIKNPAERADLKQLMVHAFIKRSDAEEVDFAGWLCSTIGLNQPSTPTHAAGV
Sequence of Epithelial Cell Kinase (ECK) (P29317 24-976, species assumed): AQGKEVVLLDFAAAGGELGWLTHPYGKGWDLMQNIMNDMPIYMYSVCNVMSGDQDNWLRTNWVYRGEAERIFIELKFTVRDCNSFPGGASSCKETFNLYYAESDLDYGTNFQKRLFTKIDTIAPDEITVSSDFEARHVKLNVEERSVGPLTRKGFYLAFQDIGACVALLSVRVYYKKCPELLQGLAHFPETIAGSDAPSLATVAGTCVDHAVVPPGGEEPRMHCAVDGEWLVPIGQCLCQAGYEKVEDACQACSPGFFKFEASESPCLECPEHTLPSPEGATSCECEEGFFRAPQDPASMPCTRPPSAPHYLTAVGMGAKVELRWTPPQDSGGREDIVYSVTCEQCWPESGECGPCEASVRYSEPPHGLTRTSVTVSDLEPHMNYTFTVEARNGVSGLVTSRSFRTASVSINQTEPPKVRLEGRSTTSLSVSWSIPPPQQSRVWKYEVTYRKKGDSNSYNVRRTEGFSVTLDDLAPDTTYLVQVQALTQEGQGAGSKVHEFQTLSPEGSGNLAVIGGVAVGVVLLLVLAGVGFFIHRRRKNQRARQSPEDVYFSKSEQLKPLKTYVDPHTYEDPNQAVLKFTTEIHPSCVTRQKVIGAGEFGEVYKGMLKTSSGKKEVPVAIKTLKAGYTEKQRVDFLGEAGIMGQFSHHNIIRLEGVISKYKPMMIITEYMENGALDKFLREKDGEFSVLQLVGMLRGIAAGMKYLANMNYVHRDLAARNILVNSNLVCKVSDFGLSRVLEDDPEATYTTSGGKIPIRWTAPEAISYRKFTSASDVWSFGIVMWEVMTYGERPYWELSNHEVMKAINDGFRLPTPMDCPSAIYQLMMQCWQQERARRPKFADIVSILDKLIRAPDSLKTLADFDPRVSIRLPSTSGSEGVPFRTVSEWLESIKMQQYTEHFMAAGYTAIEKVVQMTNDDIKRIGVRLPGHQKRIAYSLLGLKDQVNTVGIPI
T2 sequence (P35968 834-1162 limits assumed): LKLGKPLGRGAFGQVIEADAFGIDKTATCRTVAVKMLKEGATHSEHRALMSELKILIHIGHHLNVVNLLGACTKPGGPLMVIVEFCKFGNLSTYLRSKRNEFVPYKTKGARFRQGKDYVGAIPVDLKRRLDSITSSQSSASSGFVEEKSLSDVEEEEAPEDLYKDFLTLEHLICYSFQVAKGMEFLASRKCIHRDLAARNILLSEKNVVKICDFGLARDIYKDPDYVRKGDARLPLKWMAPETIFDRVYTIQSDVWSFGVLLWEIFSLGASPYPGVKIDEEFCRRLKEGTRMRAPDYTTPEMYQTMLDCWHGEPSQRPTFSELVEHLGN

Compound | pIC50 [3] | pIC50 [4] | pIC50 [2] | pIC50 [1] | further results
4-(2,3-Dihydro-1H-indol-6-ylamino)-6,7-diethoxy-quinoline-3-carbonitrile [Example 96] | – | – | – | – | %Inh @ 0.5 µM ([1]; 0.5 µM concentration of test compound): 6%
CCOc1cc2ncc(C#N)c(Nc3ccc4ncsc4c3)c2cc1OCC [Example 97, 4-(Benzothiazol-6-ylamino)-6,7-diethoxy-quinoline-3-carbonitrile HCl Salt] | < 5.59 | < 5.59 | – | < 5.00 | IC50 ([2]; read-out: Mek-Erk µM): 55 µM; inhibition at 0.5 µM [1]: 7%
CCOc1cc2ncc(C#N)c(Nc3ccc4c(c3)OCO4)c2cc1OCC [Example 98, 4-(Benzo[1,3]dioxol-5-ylamino)-6,7-diethoxy-quinoline-3-carbonitrile] | < 5.58 | 4.28 and < 5.58 | – | – | –
COc1cc2c(Nc3ccc4c(c3)NCC4)c(C#N)cnc2cc1OCCCc1ccncc1 [Example 119, 4-(2,3-Dihydro-1H-indol-6-ylamino)-6-methoxy-7-(3-pyridin-4-yl-propoxy)-quinoline-3-carbonitrile] | 4.65 and < 5.65 | 5.81 and 5.65 | – | – | –
COc1cc2ncc(C#N)c(Nc3cccc4[nH]ccc34)c2cc1OC [Example 136, 4-(1H-Indol-4-ylamino)-6,7-dimethoxy-quinoline-3-carbonitrile] | 6.06 | < 4.54 | – | < 6.00 | inhibition at 0.5 µM [1]: 33%
COc1cc2ncc(C#N)c(Nc3ccc4[nH]ncc4c3)c2cc1OC [Example 137, 4-(1H-Indazol-5-ylamino)-6,7-dimethoxy-quinoline-3-carbonitrile] | < 5.54 | 4.54 and < 5.54 | – | 6.82 | –
COc1cc2ncc(C#N)c(Nc3ccc4cn[nH]c4c3)c2cc1OCCCN1CCOCC1 [Example 139, 4-(1H-Indazol-6-ylamino)-7-methoxy-6-(3-morpholin-4-yl-propoxy)-quinoline-3-carbonitrile hydrochloride] | < 5.66 | 4.66 and < 5.66 | – | – | IC50 ([2]; read-out: Mek-Erk µM): 15 µM
COc1cc2ncc(C#N)c(Nc3ccc4nn[nH]c4c3)c2cc1OCCCN1CCOCC1 [Example 140, 4-(3H-Benzotriazol-5-ylamino)-7-methoxy-6-(3-morpholin-4-yl-propoxy)-quinoline-3-carbonitrile hydrochloride] | 5.66 | – | – | – | IC50 ([2]; read-out: Mek-Erk µM, hydrochloride): 22 µM and 15 µM
COc1cc2ncc(C#N)c(Nc3ccc4[nH]ccc4c3)c2cc1OC [Example 150, 4-(1H -Indol-5-ylamino)-6,7-Dimethoxy-quinoline-3-carbonitrile] | < 4.54 | 6.24 | – | 8.82 and 8.40 | –
COc1cc2ncc(C#N)c(Nc3ccc4[nH]cnc4c3)c2cc1OC [Example 151, 4-(1H -Benzoimidazol-5-ylamino)-6,7-dimethoxy-quinoline-3-carbonitrile] | < 4.54 | 4.54 | – | < 6.00 | inhibition at 0.5 µM [1]: 34%
COc1cc2ncc(C#N)c(Nc3ccc4[nH]c(C)nc4c3)c2cc1OC [Example 152, 6,7-Dimethoxy-4-(2-methyl-1H -benzoimidazol-5-ylamino)-quinoline-3-carbonitrile] | < 4.56 | – | < 4.00 | < 6.00 | inhibition at 0.5 µM [1]: 24%
COc1cc2ncc(C#N)c(Nc3cccc4c3CCCC4)c2cc1OC [Example 155, 6,7-Dimethoxy-4-(5,6,7,8,- tetrahydro-naphthalen-1-ylamino)-quinoline-3-carbonitrile] | – | – | 5.40 | – | –
COc1cc2c(Nc3ccc4cn[nH]c4c3)c(C#N)cnc2cc1OCCCl [Example 166, 7-(2-Chloroethoxy)-4-(1H-indazol-6-ylamino)-6-methoxyquinoline-3-carbonitrile] | 6.12 | < 5.60 | – | – | –
COc1cc2c(Nc3ccc4cn[nH]c4c3)c(C#N)cnc2cc1OCCN(C)C [Example 167, 7-(2-Dimethylaminoethoxy)-4-(1H-indazol-6-ylamino)-6-methoxyquinoline-3-carbonitrile] | – | – | 5.10 | < 6.00 | inhibition at 0.5 µM [1]: 0%
COc1cc2c(Nc3ccc4cn[nH]c4c3)c(C#N)cnc2cc1OCCN1CCOCC1 [Example 168, 4-(1H-Indazol-6-ylamino)-6-methoxy-7-(2-morpholin-4-yl-ethoxy)quinoline-3-carbonitrile] | < 4.65 | 5.35 | – | < 6.00 | inhibition at 0.5 µM [1]: 1%
CCOc1cc2ncc(C#N)c(Nc3ccc(Sc4nccn4C)c(Cl)c3)c2cc1OCC [Example 172, 4-[3-Chloro-4-(1-methyl-2-imidazolylthio)phenylamino]-6,7-diethoxy-3-quinolinecarbonitrile] | – | – | – | 7.05 | –
COc1cc2ncc(C#N)c(Nc3ccc(Sc4nccn4C)c(Cl)c3)c2cc1OC [Example 173, 4-[3-Chloro-4-(1-methyl-2-imidazolylthio)phenylamino]-6,7-dimethoxy-3-quinolinecarbonitrile] | – | – | – | 6.30 | –
C=CC(=O)Nc1ccc2ncc(C#N)c(Nc3ccc(Sc4nccn4C)c(Cl)c3)c2c1 [Example 176, N-{4-[3-Chloro-4-(1-methyl-1H-imidazol-2-ylsulfanyl)-phenylamino]-3-cyano-quinolin-6-yl}-acrylamide] | – | – | – | 8.00 | –

The next lines start with results.

pIC50 [3] | pIC50 [4] | pIC50 [2] | Compound | pIC50 [1] | further results
– | 5.06 | – | COc1cc2ncc(C#N)c(Nc3ccc4c(c3)NCC4)c2cc1OC [Example 113, 4-(2,3-Dihydro-1H-indol-6-ylamino)-6,7-methoxy-quinoline-3-carbonitrile] | – | –
– | – | 4.46 | N#Cc1cnc2cc3c(cc2c1Nc1ccc2cn[nH]c2c1)OCCO3 [Example 125, 9-(1H-Indazol-6-ylamino)-2,3-dihydro[1,4]dioxino[2,3-g]quinoline-8-carbonitrile] | – | –
< 4.27 | < 4.10 | < 4.00 and 4.00 | COc1cc2c(Nc3ccc4cn[nH]c4c3)c(C#N)cnc2c(OC)c1OC [Example 128, 4-(1H-Indazol-6-ylamino)-6,7,8-trimethoxy-quinoline-3-carbonitrile] | – | –
< 4.54 | < 4.06 | < 4.00 | COc1ccc(OC)c2c(Nc3ccc4cn[nH]c4c3)c(C#N)cnc12 [Example 138, 4-(1H-Indazol-6-ylamino)-5,8-dimethoxy-quinoline-3-carbonitrile] | – | –
< 4.50 | 4.32 and < 5.50 | 5.70 | COc1ccc2c(Nc3ccc4cn[nH]c4c3)c(C#N)cnc2c1 [Example 143, 4-(1H-Indazol-6-ylamino)-7-methoxy-quinoline-3-carbonitrile] | – | –
– | – | 5.52 | COc1ccc2c(Nc3ccc4[nH]ccc4c3)c(C#N)cnc2c1 [Example 146, 4-(1H -Indol-5-ylamino)-7-methoxy-quinoline-3-carbonitrile] | – | –
6.11 | 4.89 and < 5.59 | – | COc1cc2ncc(C#N)c(Nc3ccc(Cl)c4ccccc34)c2cc1OC [Example 154, 4-(4-Chloro-naphthalen-1-ylamino)-6,7 -Dimethoxy-quinoline-3-carbonitrile] | – | –
